Data published in patent publication US10344019B2 (priority 2010, dated 2019).
Read-outs that look alike come from different tables or passages of the source.

Legend:
Type in all cases: cell-based
[1] = test system: HCV 1a RLuc cells (dicistronic genotype 1a H77 replicon, RLuc reporter); assay: microbe, parasite or virus in culture; details: Hepatitis C virus, read-out: 1a
Outline: (§1)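 Replicon cells stably carrying the listed RLuc-encoding dicistronic replicons were seeded and treated with DMSO serial dilutions of compound (10 mM stocks) diluted into culture medium. After 72 h, cells were lysed and Renilla luciferase activity measured. EC50 was derived by non-linear regression.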

[2] = test system: HCV 1b RLuc cells (dicistronic genotype 1b Con1 replicon, RLuc reporter); assay: microbe, parasite or virus in culture; details: Hepatitis C virus, read-out: 1b (nM)
Outline: as §1

[3] = test system: HCV 2a JFH-1 Rluc cells (dicistronic genotype 2a JFH-1 replicon, RLuc reporter); assay: microbe, parasite or virus in culture; details: Hepatitis C virus, read-out: 2a JFH
Outline: as §1

[4] = test system: HCV 3a RLuc cells (NS5A chimeric genotype 1b Con1 replicon with consensus genotype 3a NS5A gene); assay: microbe, parasite or virus in culture; details: Hepatitis C virus
Outline: as §1

[5] = test system: HCV 4a Rluc cells (NS5A chimeric genotype 1b Con1 replicon with genotype 4a NS5A gene); assay: microbe, parasite or virus in culture; details: Hepatitis C virus, read-out: 4a
Outline: as §1

[6] = test system: HCV 2a Rluc cells (NS5A chimeric genotype 2a JFH-1 replicon with genotype 2a J6 strain NS5A gene, M31 present); assay: HCV replicon reporter assay, genotype 2a J6 (M31 present); details: Hepatitis C virus, read-out: 2a J6
Description: Evaluation of cell-based anti-HCV activity: Antiviral potency (EC50) was determined using a Renilla luciferase (RLuc)-based HCV replicon reporter assay. To perform the assay for genotype 1 and 2a JFH-1, HCV 1b RLuc cells (harboring a dicistronic genotype 1b Con1 replicon that encodes a RLuc reporter), or HCV 1a RLuc cells (harboring a dicistronic genotype 1a H77 replicon that encodes a RLuc reporter), or HCV 2a JFH-1 Rluc cells (harboring a dicistronic genotype 2a JFH-1 replicon that encodes a RLuc reporter) were dispensed into 384-well plates. To perform the assay for genotype 2a (with M31 present) or 2b, HCV 2a Rluc or 2b Rluc cells (both with M31 present) harboring a dicistronic NS5A chimeric genotype 2a JFH-1 replicon that encodes a RLuc reporter and either genotype 2a J6 strain NS5A gene or genotype 2b MD2b-1 NS5A gene (based on Los Alamos HCV database isolates, both with M31 present) respectively, were dispensed into 384-well plates. To perform the assay for genotype 3 and 4, HCV 3a RLuc or 4a Rluc cells harboring a dicistronic NS5A chimeric genotype 1b Con1 replicon that encodes a RLuc reporter and either a consensus genotype 3a NS5A gene or genotype 4a NS5A gene (based on Los Alamos HCV database isolates) respectively, were dispensed into 384-well plates. Compounds were re-suspended in DMSO at a concentration of 10 mM and serially diluted in DMSO either manually or using an automated pipeting instrument. Serially diluted compounds were mixed with cell culture media and added to the seeded cells. […] 72 hours later, cells were lysed and Renilla luciferase activity quantified as recommended by the manufacturer (Promega-Madison, Wis.). Non-linear regression was performed to calculate EC50 values.

[7] = test system: HCV 2b Rluc cells (NS5A chimeric genotype 2a JFH-1 replicon with genotype 2b MD2b-1 NS5A gene, M31 present); assay: microbe, parasite or virus in culture; details: Hepatitis C virus, read-out: 2b
Outline: as §1

[8] = read-out: 3a, genotype 3a replicon
[9] = genotype 2a JFH-1 RLuc replicon
[10] = 72 h, Table 2, genotype 1a H77 replicon, 72 hours
[11] = 72 h, Table 2, genotype 2a JFH-1 replicon, 72 hours
[12] = read-out: 3a, Table 2, genotype 3a NS5A chimeric replicon

Compound	EC50 ([1]; genotype 1a replicon) [nM]	EC50 [2] [nM]	EC50 ([3]; genotype 2a JFH-1 replicon) [nM]	EC50 [4, 8] [nM]	EC50 [5] [nM]	EC50 [6] [nM]	EC50 ([1]; genotype 1a H77 RLuc replicon) [nM]	EC50 [3, 9] [nM]	EC50 [7] [nM]	EC50 [1, 10] [nM]	EC50 ([2]; 72 h) [nM]	EC50 [3, 11] [nM]	EC50 [4, 12] [nM]	EC50 ([1]; 72 h, Table 1, genotype 1a H77 replicon, 72 hours) [nM]	EC50 ([3]; 72 h, Table 1, genotype 2a JFH-1 replicon, 72 hours) [nM]	EC50 ([4]; read-out: 3a, Table 1, genotype 3a NS5A chimeric replicon) [nM]
COC(=O)N[C@H](C(=O)N1[C@@H]2CC[C@@H](C2)[C@H]1c1nc(Cl)c(-c2ccc(-c3ccc4c(ccc5nc([C@@H]6C[C@H]7C[C@H]7N6C(=O)[C@@H](NC(=O)OC)C(C)C)[nH]c54)c3)cc2)[nH]1)C(C)C [Example 381]	0.001 to 0.999	0.008	0.001 to 0.999	0.001 to 0.99	0.001 to 0.99	> 44	–	–	–	–	–	–	–	–	–	–
COC(=O)N[C@H](C(=O)N1[C@@H]2CC[C@@H](C2)[C@H]1c1nc2ccc3cc(-c4ccc(-c5cnc([C@@H]6C[C@H]7C[C@H]7N6C(=O)[C@@H](NC(=O)OC)C6CCOCC6)[nH]5)c(F)c4)ccc3c2[nH]1)C(C)C [Example 392]	0.001 to 0.999	0.022	0.001 to 0.999	1 to 4.99	0.001 to 0.99	> 44	–	–	–	–	–	–	–	–	–	–
COC(=O)N[C@H](C(=O)N1[C@@H](C)CC[C@H]1c1ncc(-c2ccc3c(c2)COc2cc4c(ccc5nc([C@@H]6CCCN6C(=O)[C@@H](NC(=O)OC)C6CCOCC6)[nH]c54)cc2-3)[nH]1)C(C)C [Example 602]	–	–	–	–	–	0.001 to 0.999	0.001 to 0.999	0.001 to 0.999	0.001 to 0.999	–	–	–	–	–	–	–
COC(=O)N[C@H](C(=O)N1CCC[C@H]1c1ncc(-c2cc3c4c(c2)COc2cc(-c5cnc([C@@H]6CCCN6C(=O)[C@@H](NC(=O)OC)C(C)C)[nH]5)cc(c2-4)OC3)[nH]1)C(C)C [Example 319]	0.001 to 0.999	0.021	0.001 to 0.999	0.001 to 0.99	0.001 to 0.99	0.001 to 0.999	–	–	–	–	–	–	–	–	–	–
COC(=O)N[C@H](C(=O)N1CCC[C@H]1c1nc2ccc3cc(-c4ccc(-c5cnc([C@@H]6[C@H]7CC[C@H](C7)N6C(=O)[C@H](NC(=O)OC)c6ccccc6)[nH]5)c(F)c4)ccc3c2[nH]1)C(C)C [Example 306]	0.001 to 0.999	0.011	0.001 to 0.999	0.001 to 0.99	0.001 to 0.99	> 44	–	–	–	–	–	–	–	–	–	–
COC(=O)N[C@H](C(=O)N1CCC[C@H]1c1nc2ccc3cc(-c4ccc5c(c4)CCc4nc([C@@H]6CC7(CN6C(=O)[C@@H](NC(=O)OC)[C@@H](C)OC)OCCO7)[nH]c4-5)ccc3c2[nH]1)C(C)C [Example 83]	–	–	–	–	0.001 to 0.99	> 44	–	–	–	0.001 to 0.999	0.094	0.001 to 0.999	1 to 4.99	–	–	–
COC(=O)N[C@H](C(=O)N1CCC[C@H]1c1nc2ccc3cc(-c4ccc(-c5cnc([C@@H]6[C@H]7CC[C@H](C7)N6C(=O)[C@@H](NC(=O)OC)C(C)C)[nH]5)cc4)ccc3c2[nH]1)C(C)C [Example 53]	–	–	–	–	0.001 to 0.99	> 44	–	–	–	0.001 to 0.999	0.01	0.001 to 0.999	0.001 to 0.99	–	–	–
COC(=O)N[C@H](C(=O)N1[C@@H]2CC[C@@H](C2)[C@H]1c1nc(Cl)c(-c2ccc(-c3ccc4c(ccc5nc([C@@H]6CCCN6C(=O)[C@H](NC(=O)OC)c6ccccc6)[nH]c54)c3)cc2)[nH]1)C(C)C [Example 401]	0.001 to 0.999	0.015	0.001 to 0.999	0.001 to 0.99	0.001 to 0.99	1 to 44	–	–	–	–	–	–	–	–	–	–
CC[C@@H](C)[C@H](NC(=O)OC)C(=O)N1C[C@@H](COC)C[C@H]1c1ncc(-c2ccc3c(c2)COc2cc4c(ccc5nc([C@@H]6CC[C@H](C)N6C(=O)[C@@H](NC(=O)OC)C(C)C)[nH]c54)cc2-3)[nH]1 [Example 628]	–	–	–	–	–	0.001 to 0.999	0.001 to 0.999	0.001 to 0.999	0.001 to 0.999	–	–	–	–	–	–	–
COC(=O)N[C@H](C(=O)N1CCC[C@H]1c1ncc(-c2cc3c4c(c2)OCc2cc(-c5cnc([C@@H]6CCCN6C(=O)[C@@H](NC(=O)OC)C6CCOCC6)[nH]5)cc(c2-4)OC3)[nH]1)C(C)C [Example 25b]	–	–	–	–	0.001 to 0.99	1 to 44	–	–	–	–	0.176	–	–	0.001 to 0.999	0.001 to 0.999	0.001 to 0.99
